Measurements taken from patent US8304427B2, “Acylthiourea compound or salt thereof, and use thereof” (Taiho Pharmaceutical Co., Ltd., priority 2008, dated 2012).
Like-named read-outs stand apart in the source and are kept apart here.

Tests used:
[1] = tested on: NUGC4 cells; experiment: Cell-proliferation inhibitory assay against NUGC4 cells (Crystal Violet); assay type: cell-based; conditions: Homo sapiens, NUGC-4, 72 h; NUGC4, cancer, c-Met status (+), 3 days
Procedure: Cell-Proliferation Inhibitory Assay Against NUGC4 Cells (Human Gastric Cancer Cell Strain in Which c-Met is Over-Expressed and Highly Activated), In Vitro Test
NUGC4 cell suspension (in a 10% FBS-containing RPMI 1640 medium (product of Wako Pure Chemical Industries Ltd.) or a FBS-containing DMEM medium (product of Nacalai Tesque, Inc.)) was inoculated to each well of a 96-well (flat-bottom) microplate in an amount of 2×10^3 cells (0.1 mL), and the plate was incubated in an incubator under 5% CO2 gas atmosphere at 37° C. for one day. Each of the compounds of the present invention and comparative compound 1 was dissolved in dimethyl sulfoxide to a concentration of 30 mM. The solution was diluted with 10% FBS-containing RPMI 1640 or DMEM medium, to a final test compound concentration of 60, 20, 6, 2, 0.6, or 0.2 μM. The thus-prepared test compound solution was added to each well of the NUGC4 cell culture plate at 0.1 mL/well, and the plate was incubated in an incubator under 5% CO2 gas atmosphere at 37° C. for 3 days. After culturing, 25% aqueous glutaraldehyde solution (product of Nacalai Tesque, Inc.) was added to each well at 20 μL, and the plate was left to stand at room temperature for 20 minutes, whereby cells were fixed. Thereafter, the plate was washed with tap water and dried. Then, aqueous 0.05% Crystal Violet/20% methanol solution (product of Wako Pure Chemical Industries Ltd.) was added to each well at 100 μL/well, and the plate was left to stand at room temperature for 20 minutes, whereby cells were stained. Thereafter, the plate was washed with tap water and dried. To each well, 0.05 M NaH2PO4/ethanol (1/1=v/v) (100 μL) was added, to thereby extract Crystal Violet. The absorbance of the extracted Crystal Violet was measured at 540 nm using a microplate reader, and the absorbance was employed as an index for living cell count. Percent inhibition was calculated by the following equation, and the 50% inhibition test compound concentration (IC50 (μM)) was calculated. Percent inhibition (%)=(C−T)/C×100 • T: Absorbance of well to which a test compound was added • C: Absorbance of well to which no test compound was added

[2] = molecular target: T1, c-Met (Homo sapiens, UniProt P08581); experiment: c-Met inhibitory assay using AlphaScreen (Method A); assay type: biochemical; design: purchased Carna bio Co., Ltd 08-051; conditions: ATP 20 μM
Procedure: Inhibitory activity of compounds against c-Met kinase was determined through the following procedures. Method A) c-Met inhibitory assay using AlphaScreen™
A biotinylated peptide including a phosphorylated site of Pyk2 (Tyr402), which is reported as a bio-substrate in Clin. Cancer Res. vol. […] The mixture was allowed to react at room temperature for 20 minutes. EDTA was added to the reaction mixture to a final concentration of 50 mM, to thereby terminate reaction. […] The reaction was done for one hour at room temperature. Thereafter, the fluorescence intensity from the reaction mixture was measured using a multi-label counter (EnVision™, Perkin Elmer).
Target sequence in this assay (P08581 956-1390 limits assumed): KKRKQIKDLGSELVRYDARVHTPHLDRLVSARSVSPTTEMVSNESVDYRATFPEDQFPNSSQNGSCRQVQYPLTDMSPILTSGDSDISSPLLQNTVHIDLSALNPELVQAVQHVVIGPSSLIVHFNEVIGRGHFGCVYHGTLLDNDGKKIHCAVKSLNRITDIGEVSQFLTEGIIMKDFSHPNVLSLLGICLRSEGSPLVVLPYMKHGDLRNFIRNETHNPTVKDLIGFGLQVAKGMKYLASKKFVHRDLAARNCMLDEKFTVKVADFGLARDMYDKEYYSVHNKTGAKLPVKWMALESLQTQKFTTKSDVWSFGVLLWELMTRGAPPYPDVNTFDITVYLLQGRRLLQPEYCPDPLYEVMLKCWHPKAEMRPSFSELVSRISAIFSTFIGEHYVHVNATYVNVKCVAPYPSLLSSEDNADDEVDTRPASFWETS

[3] = tested on: HAOSMC (human aortic smooth muscle cell); experiment: Cell proliferation inhibition test against normal cells HAOSMC; assay type: cell-based; conditions: for IC50: Homo sapiens, 72 h, HAOSMC, normal, c-Met status (−), 3 days, read-out: IC50 HAOSMC; for ratio HAOSMC: IC50 HAOSMC relative to IC50 NUGC4
Procedure: [Worded in the source for another cell line; this cell line is reported under the same test.] (§1) The thus-prepared test compound solution was added to each well of the NUGC4 cell culture plate at 0.1 mL/well, and the plate was incubated in an incubator under 5% CO2 gas atmosphere at 37° C. for 3 days. […] Thereafter, the plate was washed with tap water and dried. Then, aqueous 0.05% Crystal Violet/20% methanol solution (product of Wako Pure Chemical Industries Ltd.) was added to each well at 100 μL/well, and the plate was left to stand at room temperature for 20 minutes, whereby cells were stained. Thereafter, the plate was washed with tap water and dried. To each well, 0.05 M NaH2PO4/ethanol (1/1=v/v) (100 μL) was added, to thereby extract Crystal Violet. The absorbance of the extracted Crystal Violet was measured at 540 nm using a microplate reader, and the absorbance was employed as an index for living cell count. […] Percent inhibition (%)=(C−T)/C×100 • T: Absorbance of well to which a test compound was added • C: Absorbance of well to which no test compound was added

[4] = tested on: HMEC (human skin microvascular endothelial cell); experiment: Cell proliferation inhibition test against normal cells HMEC; assay type: cell-based; conditions: for IC50: Homo sapiens, 72 h, HMEC, normal, c-Met status (−), 3 days, read-out: IC50 HMEC; for ratio HMEC: IC50 HMEC relative to IC50 NUGC4
Procedure: [Worded in the source for another cell line; this cell line is reported under the same test.] as §1

[5] = tested on: HCT-116; experiment: Cell proliferation inhibition test against c-Met low expressing tumor cells (HCT-116); assay type: cell-based; conditions: for IC50: Homo sapiens, read-out: IC50 HCT-116; for ratio HCT-116: IC50 HCT-116 relative to IC50 NUGC4
[6] = molecular target: T1, c-Met; experiment: c-Met inhibitory assay using DeskTop Profiler (Method B); assay type: biochemical; design: made in house; conditions: ATP 43 μM
Procedure: Method B) c-Met Inhibitory Assay Using DeskTop Profiler
A dephosphorylation enzyme inhibitor cocktail (PhosSTOP, #4906837, product of Roche) and a protease inhibitor cocktail (Complete, Mini, EDTA-free, #1836170; product of Roche) were added to a reaction buffer (100 mM HEPES (pH: 7.5), 10 mM MgCl2, 0.003% Brij-35, 0.04% Tween, and 1 mM DTT). In the presence of the compound of the present invention, recombinant c-Met (purified product of Taiho Pharmaceutical Co., Ltd.), fluorescence-labeled c-Met substrate peptide (FL-Peptide 2, #760346, Caliper Life Sciences) (final concentration: 1.5 μM), and ATP (final concentration: 43 μM) were added thereto, and the mixture was allowed to react at 28° C. for 90 minutes. EDTA was added to the reaction mixture to a final concentration of 10 mM, to thereby terminate reaction. By use of DeskTop Profiler (#119900, Caliper Life Sciences), each fluorescence intensity of the substrate and that of the phosphorylated product was determined, whereby the amount of the formed phosphorylated product was determined. The compound concentration that realizes 50% inhibition of formation of phosphorylated product was defined as IC50 (μM), and the results are shown in the following Tables.
Target sequence in this assay (P08581 25-1390): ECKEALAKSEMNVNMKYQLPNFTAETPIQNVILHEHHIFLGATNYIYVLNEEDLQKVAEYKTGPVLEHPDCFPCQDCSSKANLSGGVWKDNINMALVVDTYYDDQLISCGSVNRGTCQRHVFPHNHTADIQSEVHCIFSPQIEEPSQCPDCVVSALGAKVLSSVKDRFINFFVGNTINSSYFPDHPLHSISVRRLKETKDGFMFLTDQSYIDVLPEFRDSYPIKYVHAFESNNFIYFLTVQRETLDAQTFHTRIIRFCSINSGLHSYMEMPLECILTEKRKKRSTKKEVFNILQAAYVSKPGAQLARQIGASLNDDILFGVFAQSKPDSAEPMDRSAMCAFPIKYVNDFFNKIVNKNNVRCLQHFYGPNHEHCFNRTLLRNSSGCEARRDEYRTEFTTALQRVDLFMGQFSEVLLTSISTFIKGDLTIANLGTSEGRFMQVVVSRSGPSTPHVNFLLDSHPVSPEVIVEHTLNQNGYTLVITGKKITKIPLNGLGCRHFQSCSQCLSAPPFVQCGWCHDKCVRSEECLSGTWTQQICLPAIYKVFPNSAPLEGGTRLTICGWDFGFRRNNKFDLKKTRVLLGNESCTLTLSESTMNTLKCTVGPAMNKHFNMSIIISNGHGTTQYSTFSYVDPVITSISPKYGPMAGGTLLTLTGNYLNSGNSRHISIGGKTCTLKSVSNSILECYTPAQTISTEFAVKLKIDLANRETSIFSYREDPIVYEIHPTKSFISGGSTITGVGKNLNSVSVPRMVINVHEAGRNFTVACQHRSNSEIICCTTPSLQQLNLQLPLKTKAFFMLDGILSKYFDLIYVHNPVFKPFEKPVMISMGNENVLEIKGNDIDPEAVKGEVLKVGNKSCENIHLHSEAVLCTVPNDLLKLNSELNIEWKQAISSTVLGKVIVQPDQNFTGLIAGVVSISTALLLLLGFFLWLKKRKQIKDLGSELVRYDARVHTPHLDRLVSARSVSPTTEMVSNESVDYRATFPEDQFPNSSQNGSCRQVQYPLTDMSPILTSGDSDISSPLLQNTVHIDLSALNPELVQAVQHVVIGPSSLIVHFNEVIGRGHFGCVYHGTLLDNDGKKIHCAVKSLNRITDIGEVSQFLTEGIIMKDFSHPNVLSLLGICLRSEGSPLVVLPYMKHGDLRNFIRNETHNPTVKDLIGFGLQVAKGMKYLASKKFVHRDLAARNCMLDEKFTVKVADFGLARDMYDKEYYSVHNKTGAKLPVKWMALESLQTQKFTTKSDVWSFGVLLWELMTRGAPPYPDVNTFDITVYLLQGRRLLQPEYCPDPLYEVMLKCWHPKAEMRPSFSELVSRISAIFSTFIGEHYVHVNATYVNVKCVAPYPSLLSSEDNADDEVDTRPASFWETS

[7] = 72 h, HCT-116, cancer, c-Met status (−), 3 days

`COc1cc2nccc(Oc3ccc(NC(=S)NC(=O)Cc4ccccc4)cc3F)c2cc1C(=O)NCCCN1CCCC1=O` [Example 5, 4-(2-Fluoro-4-(3-(2-phenylacetyl)thioureido)phenoxy)-7-methoxy-N-(3-(2-oxopyrrolidin-1-yl)propyl)quinoline-6-carboxamide] was tested, and the IC50 [1] was 0.03 µM, the IC50 [2] was 0.116 µM and the IC50 [3] was greater than 30 µM. For the same compound, the “ratio HAOSMC” value [3] was greater than 879, the IC50 [4] was 23 µM and the “ratio HMEC” value [4] was 681. For the same compound, the IC50 [5, 7] was 29 µM and the “ratio HCT-116” value [5] was 857.
`CCNC(=O)N1CCC(NC(=O)c2cc3c(Oc4ccc(NC(=S)NC(=O)Cc5ccccc5)cc4F)ccnc3cc2OC)CC1` [Example 15, N-(1-(Ethylcarbamoyl)piperidin-4-yl)-4-(2-fluoro-4-(3-(2-phenylacetyl)thioureido)phenoxy)-7-methoxyquinoline-6-carboxamide] was tested, and the IC50 [1] was 0.02 µM, the IC50 [2] was 0.138 µM and the IC50 [3] was greater than 30 µM. For the same compound, the “ratio HAOSMC” value [3] was greater than 1584, the IC50 [4] was greater than 30 µM and the “ratio HMEC” value [4] was greater than 1584. For the same compound, the IC50 [5, 7] was greater than 30 µM and the “ratio HCT-116” value [5] was greater than 1584.
`COc1cc2nccc(Oc3ccc(NC(=S)NC(=O)Cc4ccccc4)cc3F)c2cc1C(=O)NCC(=O)N1CCC[C@H]1CO` [Example 34, (S)-4-(2-Fluoro-4-(3-(2-phenylacetyl)thioureido)phenoxy)-N-(2-(2-(hydroxymethyl)pyrrolidin-1-yl)-2-oxoethyl)-7-methoxyquinoline-6-carboxamide] showed an IC50 [1] of 0.02 µM, an IC50 [6] of 0.022 µM and an IC50 [5, 7] greater than 30 µM. For the same compound, the “ratio HCT-116” value [5] was greater than 2000.
`COc1cc2nccc(Oc3ccc(NC(=S)NC(=O)Cc4ccc(F)cc4)cc3F)c2cc1C(=O)NCCN1CCOCC1` [Example 37, 4-(2-fluoro-4-(3-(2-(4-fluorophenyl)acetyl)thioureido)phenoxy)-7-methoxy-N-(2-morpholinoethyl)quinoline-6-carboxamide] was tested, and the IC50 [1] was 0.01 µM, the IC50 [6] was 0.035 µM and the IC50 [5, 7] was greater than 30 µM. For the same compound, the “ratio HCT-116” value [5] was greater than 3000.
`CC[C@@H](CO)NC(=O)c1cc2c(Oc3ccc(NC(=S)NC(=O)Cc4ccc(F)cc4)cc3F)ccnc2cc1OC` [Example 38, (S)-4-(2-Fluoro-4-(3-(2-(4-fluorophenyl)acetyl)thioureido)phenoxy)-N-(1-hydroxybutan-2-yl)-7-methoxyquinoline-6-carboxamide] was tested, and the IC50 [1] was 0.04 µM, the IC50 [6] was 0.032 µM and the IC50 ([5]; HCT-116, 72 h) was greater than 30 µM. For the same compound, the “ratio HCT-116” value [5] was greater than 719.
For `COc1cc2nccc(Oc3ccc(NC(=S)NC(=O)Cc4ccccc4F)cc3F)c2cc1C(=O)NCC(C)(C)O` [Example 39, 4-(2-Fluoro-4-(3-(2-(2-fluorophenyl)acetyl)thioureido)phenoxy)-N-(2-hydroxy-2-methylpropyl)-7-methoxyquinoline-6-carboxamide], the IC50 [6] was 0.029 µM.
`CC[C@@H](CO)NC(=O)c1cc2c(Oc3ccc(NC(=S)NC(=O)Cc4ccccc4F)cc3F)ccnc2cc1OC` [Example 40, (S)-4-(2-Fluoro-4-(3-(2-(2-fluorophenyl)acetyl)thioureido)phenoxy)-N-(1-hydroxybutan-2-yl)-7-methoxyquinoline-6-carboxamide] was tested, and the IC50 [6] was 0.027 µM.
`CC[C@@H](CO)NC(=O)c1cc2c(Oc3ccc(NC(=S)NC(=O)Cc4cccc(F)c4)cc3F)ccnc2cc1OC` [Example 41, (S)-4-(2-Fluoro-4-(3-(2-(3-fluorophenyl)acetyl)thioureido)phenoxy)-N-(1-hydroxybutan-2-yl)-7-methoxyquinoline-6-carboxamide] gave an IC50 [6] of 0.034 µM.
With `COc1cc2nccc(Oc3ccc(NC(=S)NC(=O)Cc4ccc(Cl)cc4)cc3F)c2cc1C(=O)NCC(C)(C)O` [Example 42, 4-(4-(3-(2-(4-Chlorophenyl)acetyl)thioureido)-2-fluorophenoxy)-N-(2-hydroxy-2-methylpropyl)-7-methoxyquinoline-6-carboxamide] the IC50 [6] was 0.045 µM.
`CC[C@@H](CO)NC(=O)c1cc2c(Oc3ccc(NC(=S)NC(=O)Cc4ccc(Cl)cc4)cc3F)ccnc2cc1OC` [Example 43, (S)-4-(4-(3-(2-(4-Chlorophenyl)acetyl)thioureido)-2-fluorophenoxy)-N-(1-hydroxybutan-2-yl)-7-methoxyquinoline-6-carboxamide] was tested, and the IC50 [6] was 0.05 µM.
For `COc1cc2nccc(Oc3ccc(NC(=S)NC(=O)Cc4c(F)cccc4F)cc3F)c2cc1C(=O)NCCN1CCOCC1` [Example 44], the IC50 [6] was 0.101 µM.
Compound `COc1cc2nccc(Oc3ccc(NC(=S)NC(=O)Cc4c(F)cccc4F)cc3F)c2cc1C(=O)NCC(C)(C)O` [Example 45] has an IC50 [6] of 0.056 µM.
`CNC(=O)c1cc2c(Oc3ccc(NC(=S)NC(=O)Cc4cccc(OC)c4)cc3F)ccnc2cc1OC` [Example 46, 4-(2-Fluoro-4-(3-(2-(3-methoxyphenyl)acetyl)thioureido)phenoxy)-7-methoxy-N-methylquinoline-6-carboxamide] was tested, and the IC50 [6] was 0.085 µM.
For `CNC(=O)c1cc2c(Oc3ccc(NC(=S)NC(=O)Cc4ccc(C(F)(F)F)cc4)cc3F)ccnc2cc1OC` [Example 47, 4-(2-Fluoro-4-(3-(2-(4-trifluoromethylphenyl)acetyl)thioureido)phenoxy)-7-methoxy-N-methylquinoline-6-carboxamide], the IC50 [6] was 0.203 µM.
`CNC(=O)c1cc2c(Oc3ccc(NC(=S)NC(=O)Cc4ccccc4)cc3Cl)ccnc2cc1OC` [Example 48, 4-(2-Chloro-4-(3-(2-phenylacetyl)thioureido)phenoxy)-7-methoxy-N-methylquinoline-6-carboxamide] showed an IC50 [6] of 0.034 µM.
`CNC(=O)c1cc2c(Oc3ccc(NC(=S)NC(=O)Cc4ccccc4)c(F)c3)ccnc2cc1OC` [Example 49, 4-(3-Fluoro-4-(3-(2-phenylacetyl)thioureido)phenoxy)-7-methoxy-N-methylquinoline-6-carboxamide] showed an IC50 [6] of 0.062 µM.
In the case of `COc1cc2nccc(Oc3ccc(NC(=S)NC(=O)Cc4ccccc4)cc3F)c2cc1C(=O)N(C)C` [Example 50, 4-(2-Fluoro-4-(3-(2-phenylacetyl)thioureido)phenoxy)-7-methoxy-N,N-dimethylquinoline-6-carboxamide], the IC50 [6] is reported as 0.139 µM.
